Assay results taken from US9271948B2, “Agent for improving vesicourethral dyssynergia” (TAIHO PHARMACEUTICAL CO., LTD., priority 2013, dated 2016).

Assays:
Format in all cases: in vivo
[1] = tested on: dysuria model rat (STZ-treated female Wistar rats); test: Effects of cholinergic agent and α1 blocker on vesicourethral dyssynergia of dysuria model rat (Comparative Example 2); settings: STZ model four weeks after preparation; bethanechol 1 mg/kg i.v., tamsulosin 0.3 mg/kg i.v.; under urethane anesthesia; vs control (physiological saline)
Description: The effects of a cholinergic agent (detrusor contracting agent: bethanechol) and an al blocker (urethra relaxation agent: tamsulosin) on vesicourethral dyssynergia were evaluated.
The dysuria models in the present example were prepared by treating 10-week-old female Wistar rats with STZ (65 mg/kg, i.p.). The Sham group was prepared by treating the rats with a citric acid buffer solution instead of STZ. Four weeks after the preparation of the models, the intravesical and urethral pressure was measured under urethane anesthesia, thereby evaluating the effects of the test drugs (vehicle: physiological saline solution, bethanechol 1 mg/kg i.v., and tamsulosin 0.3 mg/kg i.v.) with regard to the cooperation of the bladder and the urethra.

[2] = tested on: dysuria model rat (STZ-treated female Wistar rats); test: Effect of ameliorating vesicourethral dyssynergia in dysuria model rat (Test Example 1); settings: STZ 65 mg/kg i.p. model; 30 mg/kg p.o. twice a day for four weeks starting four weeks after model preparation; measured under urethane anesthesia; control (6% Gelucire) 3.7±0.7
Description: The effect of 3-(15-hydroxypentadecyl)-2,4,4-trimethyl-2-cyclohexene-1-one (hereinafter referred to as “Compound 1 of the present invention”) on vesicourethral dyssynergia was evaluated.
The dysuria models in this example were prepared by treating 10-week-old female Wistar rats with streptozotocin (hereinafter referred to as STZ; in an amount of 65 mg/kg, i.p.). The Sham group was prepared by treating the rats with a citric acid buffer solution instead of STZ. The test drugs (vehicle: 6% Gelucire, Compound 1 of the present invention 30 mg/kg) were orally administered to each group after four weeks from the preparation of the models (at a time dysuria is assumed to be developed) twice a day for four weeks. On the day following the final administration, the intravesical and urethral pressure was measured under urethane anesthesia, thereby evaluating the cooperation of the bladder and the urethra.
Further, in contrast to the control group receiving vehicle (6% Gelucire) having a time lag of 3.7±0.7 seconds, the time lag in the group receiving Compound 1 of the present invention was reduced to 2.0±0.4 seconds, showing a significant effect of ameliorating vesicourethral dyssynergia.

[3] = tested on: dysuria model rat (STZ-treated female Wistar rats); test: Effect on maximum voiding quantity in dysuria model rat (Test Example 2); settings: 30 mg/kg p.o. twice a day for four weeks, under urethane anesthesia, Sham 1.45 ± 0.14, Control 2.25 ± 0.68, *p < 0.05 vs. control
Description: The dysuria models in this example were prepared in the same manner as in Test Example 1 by treating 10-week-old female Wistar rats with STZ (65 mg/kg, i.p.). The test drugs (vehicle: 6% Gelucire, Compound 1 of the present invention 30 mg/kg) were orally administered to each group after four weeks from the preparation of the models (at a time dysuria is assumed to be developed) twice a day for four weeks. On the day following the final administration, the maximum voiding quantity was measured under urethane anesthesia.

[4] = tested on: model rat having spinal cord injury (female Wistar rats); test: Effect on voiding dysfunction based on vesicourethral dyssynergia in spinal cord injury model rat (Test Example 3); settings: spinal cord injury model (Th8-9); 250 mg/kg p.o. once a day for four weeks; vs control group (6% Gelucire)
Description: The effect of Compound 1 of the present invention on dysuria was evaluated using a model rat having spinal cord injury, which is a typical disease causing dysuria due to vesicourethral dyssynergia.
The dysuria models in this example were prepared by placing a 40 g weight on the spinal cord in the eighth to ninth thoracic vertebrae (Th8-9) of 7-week-old female Wistar rats for 30 minutes.
The test drugs (vehicle: 6% Gelucire, Compound 1 of the present invention 250 mg/kg) were orally administered to each group from the day following the preparation of the models once a day for four weeks. On the day following the final administration, cystometry was performed in a wakeful state, thereby evaluating the voiding function (micturition efficiency).

| SMILES | effect on extension of the time lag between the bladder contraction and the urethra relaxation [1] | time lag between the bladder contraction and the urethra relaxation [2] | Maximum voided volme [3] | micturition efficiency (cystometry in a wakeful state) [4] |
| --- | --- | --- | --- | --- |
| CC(C[N+](C)(C)C)OC(N)=O (centres unmarked) [Bethanechol, bethanechol] | no effects |  |  |  |
| CC1=C(CCCCCCCCCCCCCCCO)C(C)(C)CCC1=O [Compound 1 of the present invention, 3-(15-hydroxypentadecyl)-2,4,4-trimethyl-2-cyclohexene-1-one] |  | 2.0 ± 0.4 s | 4.44 ± 0.85* mL | significant increase in micturition efficiency |
| CCOc1ccccc1OCCN[C@H](C)Cc1ccc(OC)c(S(N)(=O)=O)c1 [tamsulosin] | no effects |  |  |  |
